Assay results reported in patent publication US20240041042A1, “1-(PYRIDYL)-5-AZINYLPYRAZOLE DERIVATIVES, AND THEIR USE FOR CONTROL OF UNDESIRED PLANT GROWTH” (Bayer Aktiengesellschaft, priority 2020, published 2024).
Read-outs that look alike come from different tables or passages of the source.

Tests used:
Format in all cases: in vivo
[1] = test system: Matricaria inodora (MATIN); test: Pre-emergence herbicidal action against MATIN
Outline: (§1)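 Greenhouse pot trial: seeds sown, soil-covered, sprayed before emergence with compound in water (0.5% additive; 600 l/ha; ≤320 g/ha). Scoring visual, ~3 weeks, 0–100% scale vs untreated.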

[2] = test system: Setaria viridis (SETVI); test: Post-emergence herbicidal action against SETVI; details: dosage 320 g/ha
Outline: (§2)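 Post-emergence greenhouse spray, one-leaf stage, 600 l/ha water plus 0.5% additive; WP or EC formulations; application rates 320 g/ha or lower. Visual % damage vs untreated controls at ~3 weeks.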

[3] = test system: Amaranthus retroflexus (AMARE); test: Pre-emergence herbicidal action against AMARE; details: visual scoring after about 3 weeks vs untreated controls
Outline: as §1

[4] = test system: Amaranthus retroflexus (AMARE); test: Post-emergence herbicidal action against AMARE
Outline: as §2

[5] = test system: Verconica persica (VERPE); test: Pre-emergence herbicidal action against VERPE
Outline: as §1

[6] = test system: Abutilon theophrasti (ABUTH); test: Post-emergence herbicidal action against ABUTH; details: visual rating about 3 weeks after treatment vs untreated controls (100% = plants have died, 0% = like control plants)
Outline: as §2

[7] = test system: Zea mays (ZEAMX); details: pre-emergence, 80 g/ha, crop plant compatibility, in comparison to untreated controls
Text: Seeds of monocotyledonous and dicotyledonous weed plants and crop plants are placed in plastic or organic planting pots and covered with soil. The compounds of the invention, formulated in the form of wettable powders (WP) or as emulsion concentrates (EC), are then applied to the surface of the covering soil as aqueous suspension or emulsion with addition of 0.5% additive at a water application rate equivalent to 600 l/ha. After the treatment, the pots are placed in a greenhouse and kept under good growth conditions for the trial plants. After about 3 weeks, the effect of the preparations is scored visually in comparison with untreated controls as percentages. For example, 100% activity=the plants have died, 0% activity=like control plants.
The observed effects on selected crop plants are reported here in comparison to the untreated controls (values in %). The appendices “a” “b” and “c” give differentiation by dosage used with otherwise the same crop plants tested.

[8] = test system: Pharbitis purpurea (PHBPU); test: Pre-emergence herbicidal action against PHBPU; details: dosage 320 g/ha
Outline: as §1

[9] = test system: Polygonum convolvulus (POLCO); test: Post-emergence herbicidal action against POLCO; details: dosage 320 g/ha
Outline: as §2

[10] = test system: Echinochloa crus-galli (ECHCG); test: Pre-emergence herbicidal action against ECHCG
Outline: as §1

[11] = test system: Viola tricolor (VIOTR); test: Post-emergence herbicidal action against VIOTR
Outline: as §2

[12] = test system: Viola tricolor (VIOTR); test: Pre-emergence herbicidal action against VIOTR
Outline: as §1

[13] = test system: Verconica persica (VERPE); test: Post-emergence herbicidal action against VERPE; details: 320 g/ha, VERPE
Outline: as §2

[14] = test system: Echinochloa crus-galli (ECHCG); test: Post-emergence herbicidal action against ECHCG
Outline: as §2

[15] = test system: Setaria viridis (SETVI); test: Pre-emergence herbicidal action against SETVI
Outline: as §1

[16] = test system: Polygonum convolvulus (POLCO); test: Pre-emergence herbicidal action against POLCO; details: dosage 320 g/ha
Outline: as §1

[17] = test system: Triticum aestivum (TRZAS); details: crop plant compatibility, 80 g/ha, effect vs untreated controls
Outline: (§3)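 One-leaf-stage crops (2–3 wk post-sowing, sandy loam, greenhouse) sprayed on green parts; 0.5% additive, 600 l/ha water. Rated by eye ~3 wk later, % vs untreated; suffixes a/b/c mark different dosages.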

[18] = test system: Oryza sativa (ORYSA); details: crop plant compatibility, 80 g/ha, effect in comparison to untreated controls
Outline: as §3

[19] = test system: Alopecurus myosuroides (ALOMY); test: Pre-emergence herbicidal action against ALOMY; details: scored visually after about 3 weeks, 100% = plants have died
Outline: as §1

[20] = test system: Pharbitis purpurea (PHBPU); test: Post-emergence herbicidal action against PHBPU; details: dosage 320 g/ha
Outline: as §2

[21] = test system: Alopecurus myosuroides (ALOMY); test: Post-emergence herbicidal action against ALOMY; details: 320 g/ha, visual rating about 3 weeks after treatment vs untreated controls (100% = plants have died, 0% = like control plants)
Outline: as §2

[22] = test system: Avena fatua (AVEFA); test: Pre-emergence herbicidal action against AVEFA; details: 320 g/ha, visual scoring after about 3 weeks vs untreated controls
Outline: as §1

[23] = test system: Lolium rigidum (LOLRI); test: Pre-emergence herbicidal action against LOLRI; details: dosage 320 g/ha
Outline: as §1

[24] = test system: Lolium rigidum (LOLRI); test: Post-emergence herbicidal action against LOLRI; details: dosage 320 g/ha
Outline: as §2

[25] = test system: Matricaria inodora (MATIN); test: Post-emergence herbicidal action against MATIN; details: dosage 320 g/ha
Outline: as §2

[26] = test system: Zea mays (ZEAMX); details: crop plant compatibility, effect vs untreated controls
Outline: as §3

[27] = test system: Avena fatua (AVEFA); test: Post-emergence herbicidal action against AVEFA; details: 320 g/ha, visual rating about 3 weeks after treatment
Outline: as §2

[28] = 320 g/ha, visual rating about 3 weeks after treatment

Row | SMILES | Pre-emergence action against MATIN in % ([1]; dosage 320 g/ha) [%] | Pre-emergence action against AMARE in % ([3]; 320 g/ha) [%] | Post-emergence action against AMARE in % [4, 28] [%] | Pre-emergence action against VERPE in % ([5]; dosage 320 g/ha) [%] | Post-emergence action against ABUTH in % ([6]; 320 g/ha) [%] | Pre-emergence action against ZEAMX in % [7] [%] | Pre-emergence action against PHBPU in % [8] [%] | Post-emergence action against POLCO in % [9] [%] | Pre-emergence action against ECHCG in % ([10]; dosage 320 g/ha) [%] | Post-emergence action against VIOTR in % ([11]; 80 g/ha) [%] | Post-emergence action against VIOTR in % ([11]; 320 g/ha) [%] | Pre-emergence action against VIOTR in % ([12]; 320 g/ha, Viola tricolor) [%] | Post-emergence action against VERPE in % [13] [%] | Post-emergence action against ECHCG in % ([14]; dosage 80 g/ha) [%] | Post-emergence action against ECHCG in % ([14]; dosage 320 g/ha) [%] | Pre-emergence action against SETVI in % ([15]; dosage 320 g/ha) [%] | Pre-emergence action against POLCO in % [16] [%] | Post-emergence action against ORYSA in % [18] [%] | Pre-emergence action against ALOMY ([19]; 320 g/ha) [%] | Post-emergence action against PHBPU in % [20] [%] | further results
1 | CCOC(=O)COc1nn(-c2ncccc2C(F)(F)F)c(-c2cncc(F)c2)c1Br [Example I-202] | 80 | 90 | 80 | 90 | 80 | 20 | 90 | 80 | 90 | 80 | 80 | 100 | 80 | 80 | 90 | 90 | 90 | 20 | 80 | 90 | Post-emergence action against SETVI in % [2]: 80%; Pre-emergence action against VERPE in % ([5]; dosage 80 g/ha): 80%; Pre-emergence action against VIOTR in % ([12]; dosage 80 g/ha): 90%; Post-emergence action against TRZAS in % [17]: 20%
2 | O=C(O)COc1nn(-c2nc(F)ccc2F)c(-c2ccc(F)nc2)c1Br [Example I-334] | 100 | 100 | 80 | 80 | 80 | 20 | 90 | 80 | 90 | 80 | 80 | 90 | 80 | 80 | 90 | 90 | 90 | 20 | 90 | 80 | Pre-emergence action against MATIN in % ([1]; dosage 80 g/ha): 80%; Post-emergence action against ALOMY in % [21]: 90%; Pre-emergence action against AMARE in % ([3]; 80 g/ha): 90%; Post-emergence action against AMARE in % ([4]; 80 g/ha, visual rating about 3 weeks after treatment vs untreated controls (100% = plants have died, 0% = like control plants)): 80%; Post-emergence action against ABUTH in % ([6]; 80 g/ha): 80%; Pre-emergence action against ECHCG in % ([10]; dosage 80 g/ha): 80%; Pre-emergence action against AVEFA in % [22]: 90%; Pre-emergence action against LOLRI in % [23]: 90%; Post-emergence action against LOLRI in % [24]: 90%; Post-emergence action against MATIN in % [25]: 80%; Pre-emergence action against SETVI in % ([15]; dosage 80 g/ha): 90%; Post-emergence action against ZEAMX in % ([26]; 80 g/ha): 10%; Post-emergence action against ZEAMX in % ([26]; 320 g/ha): 20%; Post-emergence action against AVEFA in % [27]: 80%; Pre-emergence action against ALOMY ([19]; 80 g/ha): 80%
